Laboratory results as given in ChEMBL document CHEMBL3132769, “Fragment growing to retain or alter the selectivity of anchored kinase hinge-binding fragments” (Medchemcomm, 2014).

Experiments:
[1] = target: T1, Serine/threonine-protein kinase Sgk2 (Homo sapiens) (UniProt Q9HBY8); experiment: Inhibition of human full length SGK2 expressed in baculovirus assessed as substrate phosphorylation using fluorescence-labelled peptides as substrate at 9 uM after 90 mins by microfluidic peptide phosphorylation assay
T1 sequence (whole entry): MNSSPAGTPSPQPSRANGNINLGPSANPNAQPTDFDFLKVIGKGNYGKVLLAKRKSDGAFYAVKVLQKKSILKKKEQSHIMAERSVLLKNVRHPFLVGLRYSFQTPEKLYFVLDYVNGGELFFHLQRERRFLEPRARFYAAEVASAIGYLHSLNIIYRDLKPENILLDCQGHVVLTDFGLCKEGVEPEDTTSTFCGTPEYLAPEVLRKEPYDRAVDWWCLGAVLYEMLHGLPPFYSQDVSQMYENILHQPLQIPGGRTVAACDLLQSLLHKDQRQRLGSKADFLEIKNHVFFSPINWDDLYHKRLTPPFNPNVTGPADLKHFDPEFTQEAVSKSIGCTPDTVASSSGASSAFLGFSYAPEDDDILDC

[2] = target: T2, Serine/threonine-protein kinase Sgk3 (Homo sapiens) (UniProt Q96BR1); experiment: Inhibition of human full length SGK3 expressed in baculovirus assessed as substrate phosphorylation using fluorescence-labelled peptides as substrate at 95 uM after 90 mins by microfluidic peptide phosphorylation assay
T2 sequence (whole entry): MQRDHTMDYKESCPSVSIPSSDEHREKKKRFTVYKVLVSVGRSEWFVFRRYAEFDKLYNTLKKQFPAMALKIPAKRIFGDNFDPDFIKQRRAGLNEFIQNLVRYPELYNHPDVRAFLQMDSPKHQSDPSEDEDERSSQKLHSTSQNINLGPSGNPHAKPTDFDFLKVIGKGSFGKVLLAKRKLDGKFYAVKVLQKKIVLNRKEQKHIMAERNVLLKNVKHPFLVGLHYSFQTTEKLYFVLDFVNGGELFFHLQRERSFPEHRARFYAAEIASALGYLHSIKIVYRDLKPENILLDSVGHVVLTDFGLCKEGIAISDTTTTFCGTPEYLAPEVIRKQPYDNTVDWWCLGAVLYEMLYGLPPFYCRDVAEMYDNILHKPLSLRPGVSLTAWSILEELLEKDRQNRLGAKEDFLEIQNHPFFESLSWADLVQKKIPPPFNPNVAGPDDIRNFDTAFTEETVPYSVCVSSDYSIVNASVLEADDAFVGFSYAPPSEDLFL

[3] = target: T3, cGMP-dependent protein kinase 1 (Homo sapiens) (UniProt Q13976); experiment: Inhibition of human full length PKG-1beta expressed in baculovirus assessed as substrate phosphorylation using fluorescence-labelled peptides as substrate at 8 uM after 90 mins by microfluidic peptide phosphorylation assay
T3 sequence (whole entry): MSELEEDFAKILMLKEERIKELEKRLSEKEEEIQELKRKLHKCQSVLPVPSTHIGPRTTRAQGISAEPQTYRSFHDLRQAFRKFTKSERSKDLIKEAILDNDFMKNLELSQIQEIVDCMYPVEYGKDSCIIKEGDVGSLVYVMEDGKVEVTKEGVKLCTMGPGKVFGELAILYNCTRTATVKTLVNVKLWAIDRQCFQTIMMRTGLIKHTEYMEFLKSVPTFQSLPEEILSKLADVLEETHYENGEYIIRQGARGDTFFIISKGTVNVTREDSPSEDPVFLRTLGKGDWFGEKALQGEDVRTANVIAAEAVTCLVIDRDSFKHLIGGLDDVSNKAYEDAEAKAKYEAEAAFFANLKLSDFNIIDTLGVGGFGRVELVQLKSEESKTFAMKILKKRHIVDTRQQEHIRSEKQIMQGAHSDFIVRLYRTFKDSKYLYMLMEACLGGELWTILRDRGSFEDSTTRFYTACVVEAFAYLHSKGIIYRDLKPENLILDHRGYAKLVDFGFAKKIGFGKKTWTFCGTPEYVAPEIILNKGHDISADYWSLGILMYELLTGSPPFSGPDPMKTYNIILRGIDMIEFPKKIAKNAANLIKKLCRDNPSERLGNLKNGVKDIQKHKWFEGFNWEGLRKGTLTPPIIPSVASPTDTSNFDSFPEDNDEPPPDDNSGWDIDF

[4] = target: T4, Protein kinase C zeta type (Homo sapiens) (UniProt Q05513); experiment: Inhibition of human full length PKC zeta expressed in baculovirus assessed as substrate phosphorylation using fluorescence-labelled peptides as substrate at 8 uM after 90 mins by microfluidic peptide phosphorylation assay
T4 sequence (whole entry): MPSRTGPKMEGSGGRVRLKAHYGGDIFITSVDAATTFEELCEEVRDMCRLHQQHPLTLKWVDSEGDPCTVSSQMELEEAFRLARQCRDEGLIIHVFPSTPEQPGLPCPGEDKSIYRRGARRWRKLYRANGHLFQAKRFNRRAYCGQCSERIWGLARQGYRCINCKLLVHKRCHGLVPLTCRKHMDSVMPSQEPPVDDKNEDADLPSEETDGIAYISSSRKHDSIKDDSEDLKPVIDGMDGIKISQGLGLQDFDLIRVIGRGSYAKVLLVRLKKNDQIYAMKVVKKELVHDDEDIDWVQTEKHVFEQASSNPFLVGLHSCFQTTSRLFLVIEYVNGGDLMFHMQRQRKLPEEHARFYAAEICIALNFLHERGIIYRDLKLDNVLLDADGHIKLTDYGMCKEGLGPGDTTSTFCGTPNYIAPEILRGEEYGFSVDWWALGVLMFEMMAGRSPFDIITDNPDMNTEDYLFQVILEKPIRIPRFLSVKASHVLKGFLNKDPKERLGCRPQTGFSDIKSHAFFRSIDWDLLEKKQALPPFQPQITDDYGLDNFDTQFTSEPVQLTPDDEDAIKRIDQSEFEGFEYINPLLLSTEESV

[5] = target: T5, MAP kinase-activated protein kinase 5 (Homo sapiens) (UniProt Q8IW41); experiment: Inhibition of human full length PRAK expressed in baculovirus assessed as substrate phosphorylation using fluorescence-labelled peptides as substrate at 8 uM after 90 mins by microfluidic peptide phosphorylation assay
T5 sequence (whole entry): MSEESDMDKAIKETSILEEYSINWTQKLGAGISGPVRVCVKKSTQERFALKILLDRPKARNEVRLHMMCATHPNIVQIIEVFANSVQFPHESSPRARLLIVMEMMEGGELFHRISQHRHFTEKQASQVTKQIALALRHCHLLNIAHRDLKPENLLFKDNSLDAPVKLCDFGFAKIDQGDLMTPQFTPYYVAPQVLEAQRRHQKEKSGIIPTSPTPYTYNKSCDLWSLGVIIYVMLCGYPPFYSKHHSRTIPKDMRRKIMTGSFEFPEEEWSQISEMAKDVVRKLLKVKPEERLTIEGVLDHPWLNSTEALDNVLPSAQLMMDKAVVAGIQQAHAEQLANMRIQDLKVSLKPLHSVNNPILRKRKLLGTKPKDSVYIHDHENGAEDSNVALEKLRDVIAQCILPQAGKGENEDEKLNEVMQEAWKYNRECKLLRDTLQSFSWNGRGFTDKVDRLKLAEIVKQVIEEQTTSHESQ

[6] = target: Serine/threonine-protein kinase MARK2 (Homo sapiens) (UniProt Q7KZI7); experiment: Inhibition of human full length MARK2 expressed in baculovirus assessed as substrate phosphorylation using fluorescence-labelled peptides as substrate at 8 uM after 90 mins by microfluidic peptide phosphorylation assay
Sequence of Serine/threonine-protein kinase MARK2 (Homo sapiens) (Q7KZI7 whole entry): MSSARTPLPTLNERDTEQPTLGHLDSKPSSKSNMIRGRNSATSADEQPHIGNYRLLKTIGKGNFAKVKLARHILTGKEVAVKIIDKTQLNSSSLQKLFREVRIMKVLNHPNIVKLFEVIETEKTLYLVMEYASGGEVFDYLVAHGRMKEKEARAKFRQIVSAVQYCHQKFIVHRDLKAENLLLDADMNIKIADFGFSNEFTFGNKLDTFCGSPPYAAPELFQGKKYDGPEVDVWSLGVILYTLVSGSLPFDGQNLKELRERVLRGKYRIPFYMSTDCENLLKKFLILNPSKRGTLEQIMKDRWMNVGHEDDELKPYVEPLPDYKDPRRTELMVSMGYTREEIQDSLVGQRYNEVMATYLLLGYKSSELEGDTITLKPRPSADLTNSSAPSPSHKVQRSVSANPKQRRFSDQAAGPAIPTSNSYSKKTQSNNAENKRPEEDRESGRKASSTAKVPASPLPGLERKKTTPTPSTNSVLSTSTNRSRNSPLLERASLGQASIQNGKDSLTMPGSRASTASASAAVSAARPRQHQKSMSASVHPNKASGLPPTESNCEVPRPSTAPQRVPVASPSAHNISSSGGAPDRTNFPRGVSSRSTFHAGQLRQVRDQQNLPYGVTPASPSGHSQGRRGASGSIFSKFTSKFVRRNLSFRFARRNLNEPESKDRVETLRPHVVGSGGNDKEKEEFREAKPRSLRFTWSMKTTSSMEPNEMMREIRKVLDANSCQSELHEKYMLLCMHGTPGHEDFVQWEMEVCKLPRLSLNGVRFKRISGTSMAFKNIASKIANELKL

NCC1CN(c2ncnc3[nH]c4cnccc4c23)CCO1 (stereo unspecified)
inhibition [1]: 48.5%

NCCc1ccc(-c2ncnc3[nH]cnc23)cc1
inhibition [2]: 41.5%

NCC1CCN(c2ncnc3[nH]ccc23)CC1
inhibition [3]: 76.5% | inhibition [4]: 67.5% | inhibition [5]: 51.5% | inhibition [6]: 37%
